Bridge positions count the residues as written; N and C are the ends. Square brackets hold non-standard residues; d marks the D form. Peptide text beside a SMILES is read from it. 1Nal = N[C@@H](Cc1cccc2ccccc12)C(=O)O
Legend:
[1] = biological target: T1, human Kv1.3 (CHO) (Homo sapiens, UniProt P22001); test: cell-based
T1 construct: expressed in transfected cells; host or cells: CHO

[2] = biological target: T2, human Kv1.1 (HEK293) (Homo sapiens, UniProt Q09470); test: cell-based
T2 construct: expressed in transfected cells; host or cells: HEK293
T2 sequence (Q09470 whole entry): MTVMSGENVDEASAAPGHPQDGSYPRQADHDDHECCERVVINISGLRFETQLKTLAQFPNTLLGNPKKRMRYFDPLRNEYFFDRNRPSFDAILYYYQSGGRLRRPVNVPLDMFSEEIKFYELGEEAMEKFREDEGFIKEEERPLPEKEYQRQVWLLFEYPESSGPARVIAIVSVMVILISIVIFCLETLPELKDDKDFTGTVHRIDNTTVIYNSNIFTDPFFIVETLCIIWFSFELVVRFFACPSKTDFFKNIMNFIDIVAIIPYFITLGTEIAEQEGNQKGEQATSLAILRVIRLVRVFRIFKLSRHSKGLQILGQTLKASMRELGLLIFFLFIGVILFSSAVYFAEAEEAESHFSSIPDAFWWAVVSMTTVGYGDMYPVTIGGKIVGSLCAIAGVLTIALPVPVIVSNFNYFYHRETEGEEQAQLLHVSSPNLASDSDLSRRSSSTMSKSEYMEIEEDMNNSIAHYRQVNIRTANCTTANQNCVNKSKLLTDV

T1 sequence (P22001 whole entry): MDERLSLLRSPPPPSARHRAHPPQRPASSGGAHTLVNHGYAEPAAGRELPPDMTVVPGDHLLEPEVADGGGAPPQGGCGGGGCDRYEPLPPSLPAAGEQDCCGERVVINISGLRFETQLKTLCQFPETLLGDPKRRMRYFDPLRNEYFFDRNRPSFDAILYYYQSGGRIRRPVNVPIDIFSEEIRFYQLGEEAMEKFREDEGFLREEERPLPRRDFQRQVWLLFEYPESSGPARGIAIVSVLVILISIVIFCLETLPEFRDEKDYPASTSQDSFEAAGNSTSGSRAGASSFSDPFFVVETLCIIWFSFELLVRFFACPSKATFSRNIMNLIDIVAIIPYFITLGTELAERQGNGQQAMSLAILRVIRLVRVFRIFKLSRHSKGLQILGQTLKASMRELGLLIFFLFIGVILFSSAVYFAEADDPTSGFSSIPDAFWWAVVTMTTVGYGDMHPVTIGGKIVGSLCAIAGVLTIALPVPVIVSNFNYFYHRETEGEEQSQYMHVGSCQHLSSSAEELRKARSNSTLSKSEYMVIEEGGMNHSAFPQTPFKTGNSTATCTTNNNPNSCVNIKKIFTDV

| Compound | IC50 [1] [nM] | IC50 [2] [nM] |
| --- | --- | --- |
| CC[C@H](C)[C@@H]1NC(=O)[C@H](CCCCN)NC(=O)[C@@H](NC(=O)[C@H](CCCCN)NC(=O)[C@@H](NC(=O)[C@H](CC(N)=O)NC(=O)[C@@H](NC(=O)[C@@H](NC(=O)[C@@H](NC(=O)CN)C(C)C)[C@@H](C)CC)[C@@H](C)CC)C(C)C)CSSC[C@@H]2NC(=O)[C@H](CCCCN)NC(=O)CNC(=O)[C@H](Cc3ccccc3)NC(=O)[C@H](CCCNC(=N)N)NC(=O)[C@H](CCSC)NC(=O)CNC(=O)[C@H](CCC(=O)O)NC(=O)[C@H](CCCCN)NC(=O)[C@H](CCCCN)NC(=O)[C@@H]3CSSC[C@@H](C(=O)N[C@H](C(=O)N4CCC[C@H]4C(=O)N[C@@H](CCCCN)C(=O)O)[C@@H](C)O)NC(=O)[C@H](Cc4c[nH]cn4)NC(=O)[C@H](CSSC[C@H](NC(=O)[C@H](CCC(N)=O)NC(=O)[C@H](CCCNC(=N)N)NC(=O)[C@H](CO)NC1=O)C(=O)N[C@@H](CC(C)C)C(=O)N[C@@H](CCC(=O)O)C(=O)N1CCC[C@H]1C(=O)N3)NC(=O)[C@H](CCCCN)NC(=O)CNC(=O)[C@H](CC(N)=O)NC(=O)[C@H](CCSC)NC2=O [A21E] (H-GVIINVKCKISRQCLEPCKKEGMRFGKCMNGKCHCTPK-OH; disulfide 8-28, 14-33, 18-35) | 0.00737 | < 0.00152 |
| CC[C@H](C)[C@@H]1NC(=O)[C@H](CCCCN)NC(=O)[C@@H](NC(=O)[C@H](CCCCN)NC(=O)[C@@H](NC(=O)[C@H](CC(N)=O)NC(=O)[C@@H](NC(=O)[C@@H](NC(=O)[C@@H](NC(=O)CN)C(C)C)[C@@H](C)CC)[C@@H](C)CC)C(C)C)CSSC[C@@H]2NC(=O)[C@H](CCCCN)NC(=O)CNC(=O)[C@H](Cc3ccccc3)NC(=O)[C@H](CCCNC(=N)N)NC(=O)[C@H](CCSC)NC(=O)CNC(=O)[C@H](CCCNC(=N)N)NC(=O)[C@H](CCCCN)NC(=O)[C@H](CCCCN)NC(=O)[C@@H]3CSSC[C@@H](C(=O)N[C@H](C(=O)N4CCC[C@H]4C(=O)N[C@@H](CCCCN)C(=O)O)[C@@H](C)O)NC(=O)[C@H](Cc4c[nH]cn4)NC(=O)[C@H](CSSC[C@H](NC(=O)[C@H](CCC(N)=O)NC(=O)[C@H](CCCNC(=N)N)NC(=O)[C@H](CO)NC1=O)C(=O)N[C@@H](CC(C)C)C(=O)N[C@@H](CCC(=O)O)C(=O)N1CCC[C@H]1C(=O)N3)NC(=O)[C@H](CCCCN)NC(=O)CNC(=O)[C@H](CC(N)=O)NC(=O)[C@H](CCSC)NC2=O [A21R] (H-GVIINVKCKISRQCLEPCKKRGMRFGKCMNGKCHCTPK-OH; disulfide 8-28, 14-33, 18-35) | 0.0149 | 0.00261 |
| CC[C@H](C)[C@@H]1NC(=O)[C@H](CCCCN)NC(=O)[C@@H](NC(=O)[C@H](CCCCN)NC(=O)[C@@H](NC(=O)[C@H](CC(N)=O)NC(=O)[C@@H](NC(=O)[C@@H](NC(=O)[C@@H](NC(=O)CN)C(C)C)[C@@H](C)CC)[C@@H](C)CC)C(C)C)CSSC[C@@H]2NC(=O)[C@H](CCCCN)NC(=O)CNC(=O)[C@H](Cc3ccccc3)NC(=O)[C@H](CCCNC(=N)N)NC(=O)[C@H](CCSC)NC(=O)CNC(=O)[C@H](C)NC(=O)[C@H](CCCCN)NC(=O)[C@H](CCCCN)NC(=O)[C@@H]3CSSC[C@@H](C(=O)N[C@H](C(=O)N4CCC[C@H]4C(=O)N[C@@H](CCCCN)C(=O)O)[C@@H](C)O)NC(=O)[C@H](Cc4c[nH]cn4)NC(=O)[C@H](CSSC[C@H](NC(=O)[C@H](CCC(N)=O)NC(=O)[C@H](CCCNC(=N)N)NC(=O)[C@H](CO)NC1=O)C(=O)N[C@@H](CC(C)C)C(=O)N[C@@H](C)C(=O)N1CCC[C@H]1C(=O)N3)NC(=O)[C@H](CCCCN)NC(=O)CNC(=O)[C@H](CC(N)=O)NC(=O)[C@H](CCSC)NC2=O [E16A] (H-GVIINVKCKISRQCLAPCKKAGMRFGKCMNGKCHCTPK-OH; disulfide 8-28, 14-33, 18-35) | 0.0216 | 0.00687 |
| CC[C@H](C)[C@@H]1NC(=O)[C@H](CCCCN)NC(=O)[C@@H](NC(=O)[C@H](CCCCN)NC(=O)[C@@H](NC(=O)[C@H](CC(N)=O)NC(=O)[C@@H](NC(=O)[C@@H](NC(=O)[C@@H](NC(=O)CN)C(C)C)[C@@H](C)CC)[C@@H](C)CC)C(C)C)CSSC[C@@H]2NC(=O)[C@H](CCCCN)NC(=O)CNC(=O)[C@H](Cc3ccccc3)NC(=O)[C@H](CCCNC(=N)N)NC(=O)[C@H](CCSC)NC(=O)CNC(=O)[C@H](C)NC(=O)[C@H](CCCCN)NC(=O)[C@H](CCCCN)NC(=O)[C@@H]3CSSC[C@@H](C(=O)N[C@H](C(=O)N4CCC[C@H]4C(=O)N[C@@H](CCCCN)C(=O)O)[C@@H](C)O)NC(=O)[C@H](Cc4c[nH]cn4)NC(=O)[C@H](CSSC[C@H](NC(=O)[C@H](CCC(N)=O)NC(=O)[C@H](CCCNC(=N)N)NC(=O)[C@H](CO)NC1=O)C(=O)N[C@@H](CC(C)C)C(=O)N[C@@H](Cc1cccc4ccccc14)C(=O)N1CCC[C@H]1C(=O)N3)NC(=O)[C@H](CCCCN)NC(=O)CNC(=O)[C@H](CC(N)=O)NC(=O)[C@H](CCSC)NC2=O [E16Nal] (H-GVIINVKCKISRQCL[1Nal]PCKKAGMRFGKCMNGKCHCTPK-OH; disulfide 8-28, 14-33, 18-35) | 0.00958 | < 0.00152 |
| CC[C@H](C)[C@@H]1NC(=O)[C@H](CCCCN)NC(=O)[C@@H](NC(=O)[C@H](CCCCN)NC(=O)[C@@H](NC(=O)[C@H](CC(N)=O)NC(=O)[C@@H](NC(=O)[C@@H](NC(=O)[C@@H](NC(=O)CN)C(C)C)[C@@H](C)CC)[C@@H](C)CC)C(C)C)CSSC[C@@H]2NC(=O)[C@H](CCCCN)NC(=O)CNC(=O)[C@H](Cc3ccccc3)NC(=O)[C@H](CCCNC(=N)N)NC(=O)[C@H](CCSC)NC(=O)CNC(=O)[C@H](C)NC(=O)[C@H](CCCCN)NC(=O)[C@H](CCCCN)NC(=O)[C@@H]3CSSC[C@@H](C(=O)N[C@H](C(=O)N4CCC[C@H]4C(=O)N[C@@H](CCCCN)C(=O)O)[C@@H](C)O)NC(=O)[C@H](Cc4c[nH]cn4)NC(=O)[C@H](CSSC[C@H](NC(=O)[C@H](CCC(N)=O)NC(=O)[C@H](CCCNC(=N)N)NC(=O)[C@H](CO)NC1=O)C(=O)N[C@@H](CC(C)C)C(=O)N[C@@H](CCCNC(=N)N)C(=O)N1CCC[C@H]1C(=O)N3)NC(=O)[C@H](CCCCN)NC(=O)CNC(=O)[C@H](CC(N)=O)NC(=O)[C@H](CCSC)NC2=O [E16R] (H-GVIINVKCKISRQCLRPCKKAGMRFGKCMNGKCHCTPK-OH; disulfide 8-28, 14-33, 18-35) | 0.0104 | < 0.00152 |
| CC[C@H](C)[C@@H]1NC(=O)[C@H](CCCCN)NC(=O)[C@@H](NC(=O)[C@H](CCCCN)NC(=O)[C@@H](NC(=O)[C@H](CC(N)=O)NC(=O)[C@@H](NC(=O)[C@@H](NC(=O)[C@@H](NC(=O)CN)C(C)C)[C@@H](C)CC)[C@@H](C)CC)C(C)C)CSSC[C@@H]2NC(=O)[C@H](CCCCN)NC(=O)CNC(=O)[C@H](C)NC(=O)[C@H](CCCNC(=N)N)NC(=O)[C@H](CCSC)NC(=O)CNC(=O)[C@H](C)NC(=O)[C@H](CCCCN)NC(=O)[C@H](CCCCN)NC(=O)[C@@H]3CSSC[C@@H](C(=O)N[C@H](C(=O)N4CCC[C@H]4C(=O)N[C@@H](CCCCN)C(=O)O)[C@@H](C)O)NC(=O)[C@H](Cc4c[nH]cn4)NC(=O)[C@H](CSSC[C@H](NC(=O)[C@H](CCC(N)=O)NC(=O)[C@H](CCCNC(=N)N)NC(=O)[C@H](CO)NC1=O)C(=O)N[C@@H](CC(C)C)C(=O)N[C@@H](CCC(=O)O)C(=O)N1CCC[C@H]1C(=O)N3)NC(=O)[C@H](CCCCN)NC(=O)CNC(=O)[C@H](CC(N)=O)NC(=O)[C@H](CCSC)NC2=O [F25A] (H-GVIINVKCKISRQCLEPCKKAGMRAGKCMNGKCHCTPK-OH; disulfide 8-28, 14-33, 18-35) | 1.49 | 0.0473 |
| CC[C@H](C)[C@@H]1NC(=O)[C@H](CCCCN)NC(=O)[C@@H](NC(=O)[C@H](CCCCN)NC(=O)[C@@H](NC(=O)[C@H](CC(N)=O)NC(=O)[C@@H](NC(=O)[C@@H](NC(=O)[C@@H](NC(=O)CN)C(C)C)[C@@H](C)CC)[C@@H](C)CC)C(C)C)CSSC[C@@H]2NC(=O)[C@H](CCCCN)NC(=O)CNC(=O)[C@H](CCC(=O)O)NC(=O)[C@H](CCCNC(=N)N)NC(=O)[C@H](CCSC)NC(=O)CNC(=O)[C@H](C)NC(=O)[C@H](CCCCN)NC(=O)[C@H](CCCCN)NC(=O)[C@@H]3CSSC[C@@H](C(=O)N[C@H](C(=O)N4CCC[C@H]4C(=O)N[C@@H](CCCCN)C(=O)O)[C@@H](C)O)NC(=O)[C@H](Cc4c[nH]cn4)NC(=O)[C@H](CSSC[C@H](NC(=O)[C@H](CCC(N)=O)NC(=O)[C@H](CCCNC(=N)N)NC(=O)[C@H](CO)NC1=O)C(=O)N[C@@H](CC(C)C)C(=O)N[C@@H](CCC(=O)O)C(=O)N1CCC[C@H]1C(=O)N3)NC(=O)[C@H](CCCCN)NC(=O)CNC(=O)[C@H](CC(N)=O)NC(=O)[C@H](CCSC)NC2=O [F25E] (H-GVIINVKCKISRQCLEPCKKAGMREGKCMNGKCHCTPK-OH; disulfide 8-28, 14-33, 18-35) | > 3.33 | > 3.33 |
| CC[C@H](C)[C@@H]1NC(=O)[C@H](CCCCN)NC(=O)[C@@H](NC(=O)[C@H](CCCCN)NC(=O)[C@@H](NC(=O)[C@H](CC(N)=O)NC(=O)[C@@H](NC(=O)[C@@H](NC(=O)[C@@H](NC(=O)CN)C(C)C)[C@@H](C)CC)[C@@H](C)CC)C(C)C)CSSC[C@@H]2NC(=O)[C@H](CCCCN)NC(=O)CNC(=O)[C@H](Cc3cccc4ccccc34)NC(=O)[C@H](CCCNC(=N)N)NC(=O)[C@H](CCSC)NC(=O)CNC(=O)[C@H](C)NC(=O)[C@H](CCCCN)NC(=O)[C@H](CCCCN)NC(=O)[C@@H]3CSSC[C@@H](C(=O)N[C@H](C(=O)N4CCC[C@H]4C(=O)N[C@@H](CCCCN)C(=O)O)[C@@H](C)O)NC(=O)[C@H](Cc4c[nH]cn4)NC(=O)[C@H](CSSC[C@H](NC(=O)[C@H](CCC(N)=O)NC(=O)[C@H](CCCNC(=N)N)NC(=O)[C@H](CO)NC1=O)C(=O)N[C@@H](CC(C)C)C(=O)N[C@@H](CCC(=O)O)C(=O)N1CCC[C@H]1C(=O)N3)NC(=O)[C@H](CCCCN)NC(=O)CNC(=O)[C@H](CC(N)=O)NC(=O)[C@H](CCSC)NC2=O [F25Nal] (H-GVIINVKCKISRQCLEPCKKAGMR[1Nal]GKCMNGKCHCTPK-OH; disulfide 8-28, 14-33, 18-35) | 0.0286 | 0.0517 |

Reference: patent US20090299044A1 (priority 2006, published 2009)
